# In paper PMC11831592, “Repurposing Linezolid in Conjunction with Histone Deacetylase Inhibitor Access in the Realm of Glioblastoma Therapies” (Journal of Medicinal Chemistry, 2025):
# Tests used:
# [1] = system: A172-R TMZ-resistant GBM cell line; test: MTT cytotoxicity assay, A172-R; type: cell-based; details: Homo sapiens, 72 h
# Description: (§1) We utilized linezolid as the structural foundation to confirm the cytotoxicity of linezolid-conjugated functional domains against glioblastoma (GBM). We combined it with the binding structures of anti-histone deacetylases (HDACs) (denoted as compounds 1–5 and 11–14), antitubulin (compound 6), anticyclooxygenase (COX) (compound 7), and anti-heat shock protein 90 (Hsp90) (compounds 8–10). These constructs were then administered to TMZ-resistant GBM cell lines A172R and PT#3R at concentrations ranging from 0 to 80 μM over 72 h. The cytotoxic effects of these compounds were assessed using the MTT assay (Table 1 and Supporting Information IV). […] Given the remarkable cytotoxicity of compound 1 on both A172-R and PT#3-R TMZ-resistant cells, this study subsequently focused on compound 1 for further in-depth investigation and mechanistic exploration. To validate that the cytotoxic effect of compound 1 on GBM is not attributed to linezolid alone, we separately treated the TMZ-resistant GBM cell line PT#3-R with compound 1 and linezolid. […] This confirms that the cytotoxicity of compound 1 against GBM is primarily attributable to the inhibitory structure of linezolid-conjugated HDAC (Figure 2A). Furthermore, we compared the cytotoxic effects of compound 1 on various wild-type brain tumor cell lines, including U87MG, PT#3, LN229 GBM cells, and CT-2A mouse astrocyte cell line as well as TMZ-resistant variants cell lines, including U87MG-R, PT#3-R, CT-2A-R, and T98G (MGMT-positive). […] Additionally, we further confirmed the efficacy of compound 1 in GBM treatment.
# (§2) MTT assay was employed to evaluate the cytotoxicity of the synthesized compound against resistant GBM cells. The MTT (3-(4,5-dimethylthiazol-2-yl)-2,5-diphenyltetrazolium bromide, catalog no. AM0818-0005) powder was purchased from BIONOVAS (Ontario, Canada). The MTT was prepared at 10 mg/mL stock with ultrapure water and then stored at −20 °C. All cells were seeded 2.5 × 10^4 per well in the 24-well plate for 24 h, followed by treating at different concentrations of compounds for 72 h. Before the experiment, the MTT stock was 10-fold diluted with the culture medium and then incubated with cells for 30 min. After the incubation, the MTT medium was discarded and added 300 μL of dimethyl sulfoxide (DMSO, cat. no. D2650, Sigma-Aldrich, MO, USA) to dissolve the cells. Finally, 100 μL of the mixture was transferred to measure the OD 595 nm absorbance.
# [2] = system: PT#3-R TMZ-resistant GBM cell line; test: cells; type: cell-based; details: MTT; for IC50: Homo sapiens, 72 h
# Description: The cytotoxic effects of these compounds were assessed using the MTT assay (Table 1 and Supporting Information IV).
# as §2, with “All cells were seeded 2.5 × 10^4 per well in the 24-well plate for 24 h, followed by treating at different concentrations of compounds for 72 h.” left out, “cells.” for “cells. Finally, 100 μL of the mixture was transferred to measure the OD 595 nm absorbance.”
# [3] = system: TMZ-resistant GBM cell lines A172R and PT#3R; test: MTT cytotoxicity assay, TMZ-resistant GBM lines (statement in words); type: cell-based; details: 0 to 80 μM, 72 h
# Description: as §1
# MTT assay was employed to evaluate the cytotoxicity of the synthesized compound against resistant GBM cells. The MTT (3-(4,5-dimethylthiazol-2-yl)-2,5-diphenyltetrazolium bromide, catalog no. AM0818-0005) powder was purchased from BIONOVAS (Ontario, Canada). The MTT was prepared at 10 mg/mL stock with ultrapure water and then stored at −20 °C. […] Finally, 100 μL of the mixture was transferred to measure the OD 595 nm absorbance.
# HDAC1 = target: T1, HDAC1 (Homo sapiens, UniProt Q13547); test: HDAC enzyme inhibition assay, HDAC1; type: biochemical; details: 10-dose, 3-fold serial dilution starting at 10 μM
# T1 construct: purchased Reaction Biology Corporation, Malvern, PA (contract assay service)
# Description: (§3) Enzyme inhibition assays were performed by the Reaction Biology Corporation, Malvern, PA (http://www.reactionbiology.com).
# HDAC2 = target: T2, HDAC2 (Homo sapiens, UniProt Q92769); test: HDAC enzyme inhibition assay, HDAC2; type: biochemical; details: 10-dose, 3-fold serial dilution starting at 10 μM
# T2 construct: purchased Reaction Biology Corporation, Malvern, PA (contract assay service)
# Description: as §3
# HDAC6 = target: T3, HDAC6 (Homo sapiens, UniProt Q9UBN7); test: HDAC enzyme inhibition assay, HDAC6; type: biochemical; details: 10-dose, 3-fold serial dilution starting at 10 μM
# T3 construct: purchased Reaction Biology Corporation, Malvern, PA (contract assay service)
# T3 sequence (Q9UBN7 1-1215): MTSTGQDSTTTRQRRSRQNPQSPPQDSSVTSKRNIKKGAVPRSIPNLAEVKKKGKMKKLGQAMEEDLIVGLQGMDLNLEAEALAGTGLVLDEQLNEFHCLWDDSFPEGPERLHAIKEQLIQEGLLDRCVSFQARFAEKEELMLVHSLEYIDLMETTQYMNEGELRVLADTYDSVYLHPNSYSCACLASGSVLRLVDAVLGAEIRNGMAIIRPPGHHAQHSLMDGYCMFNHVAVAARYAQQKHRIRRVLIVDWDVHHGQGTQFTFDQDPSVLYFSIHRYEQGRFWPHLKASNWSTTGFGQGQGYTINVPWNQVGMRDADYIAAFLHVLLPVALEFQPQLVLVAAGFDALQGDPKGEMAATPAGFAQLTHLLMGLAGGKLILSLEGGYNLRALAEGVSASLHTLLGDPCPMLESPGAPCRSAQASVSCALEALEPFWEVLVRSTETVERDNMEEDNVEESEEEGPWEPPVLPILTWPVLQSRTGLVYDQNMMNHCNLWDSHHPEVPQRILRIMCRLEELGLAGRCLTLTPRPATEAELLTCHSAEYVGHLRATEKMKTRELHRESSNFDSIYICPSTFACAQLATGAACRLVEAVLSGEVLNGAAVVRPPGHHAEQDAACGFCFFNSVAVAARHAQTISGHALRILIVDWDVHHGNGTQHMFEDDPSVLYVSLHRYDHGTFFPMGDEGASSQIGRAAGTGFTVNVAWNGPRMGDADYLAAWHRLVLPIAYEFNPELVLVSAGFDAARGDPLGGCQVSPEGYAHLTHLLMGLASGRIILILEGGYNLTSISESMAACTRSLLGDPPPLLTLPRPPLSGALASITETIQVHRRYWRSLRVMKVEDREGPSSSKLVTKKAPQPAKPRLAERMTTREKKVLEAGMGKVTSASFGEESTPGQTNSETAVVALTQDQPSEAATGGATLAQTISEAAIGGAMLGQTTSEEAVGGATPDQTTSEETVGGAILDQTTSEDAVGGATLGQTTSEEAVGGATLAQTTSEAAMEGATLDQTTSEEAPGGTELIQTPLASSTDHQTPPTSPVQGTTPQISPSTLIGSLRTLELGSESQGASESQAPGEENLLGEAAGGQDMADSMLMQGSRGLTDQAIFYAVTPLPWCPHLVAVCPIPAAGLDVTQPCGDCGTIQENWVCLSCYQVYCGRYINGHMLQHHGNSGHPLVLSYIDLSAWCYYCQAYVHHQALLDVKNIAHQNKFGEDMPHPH
# Description: as §3
# HDAC8 = target: T4, HDAC8 (Homo sapiens, UniProt Q9BY41); test: HDAC enzyme inhibition assay, HDAC8; type: biochemical; details: 10-dose, 3-fold serial dilution starting at 10 μM
# T4 construct: purchased Reaction Biology Corporation, Malvern, PA (contract assay service)
# T4 sequence (Q9BY41 1-377): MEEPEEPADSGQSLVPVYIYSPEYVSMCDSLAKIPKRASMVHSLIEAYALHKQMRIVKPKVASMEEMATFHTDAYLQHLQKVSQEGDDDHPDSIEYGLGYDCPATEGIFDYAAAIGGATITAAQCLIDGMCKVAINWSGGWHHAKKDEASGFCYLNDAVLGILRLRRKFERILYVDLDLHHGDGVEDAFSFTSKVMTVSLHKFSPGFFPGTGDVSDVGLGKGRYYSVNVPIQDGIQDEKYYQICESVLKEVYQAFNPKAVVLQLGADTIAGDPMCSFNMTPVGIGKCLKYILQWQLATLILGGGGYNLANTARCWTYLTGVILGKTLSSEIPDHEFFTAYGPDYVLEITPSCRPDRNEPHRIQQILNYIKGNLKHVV
# Description: as §3
# GBM = system: GBM; set-up: method as in PMID 31505812; details: GBM patients, vs 12.7 months; cited from earlier work
# [4] = set-up: method as in PMID 36921275; details: meningitis patients; cited from earlier work
# [5] = within 5–7 h; cited from earlier work
# T1 sequence (Q13547 whole entry): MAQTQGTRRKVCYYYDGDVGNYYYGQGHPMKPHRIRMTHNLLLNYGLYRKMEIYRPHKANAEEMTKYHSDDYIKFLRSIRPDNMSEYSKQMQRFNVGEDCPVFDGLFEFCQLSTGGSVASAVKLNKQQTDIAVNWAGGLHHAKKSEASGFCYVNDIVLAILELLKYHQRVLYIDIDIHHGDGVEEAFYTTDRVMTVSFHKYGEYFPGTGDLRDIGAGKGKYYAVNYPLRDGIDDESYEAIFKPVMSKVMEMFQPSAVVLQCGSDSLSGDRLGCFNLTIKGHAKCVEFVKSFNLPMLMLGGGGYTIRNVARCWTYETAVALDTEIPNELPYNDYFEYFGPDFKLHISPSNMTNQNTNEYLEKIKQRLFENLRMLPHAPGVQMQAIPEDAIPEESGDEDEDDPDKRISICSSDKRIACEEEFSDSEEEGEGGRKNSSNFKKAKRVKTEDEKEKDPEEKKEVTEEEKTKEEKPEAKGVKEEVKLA
# T2 sequence (Q92769 whole entry): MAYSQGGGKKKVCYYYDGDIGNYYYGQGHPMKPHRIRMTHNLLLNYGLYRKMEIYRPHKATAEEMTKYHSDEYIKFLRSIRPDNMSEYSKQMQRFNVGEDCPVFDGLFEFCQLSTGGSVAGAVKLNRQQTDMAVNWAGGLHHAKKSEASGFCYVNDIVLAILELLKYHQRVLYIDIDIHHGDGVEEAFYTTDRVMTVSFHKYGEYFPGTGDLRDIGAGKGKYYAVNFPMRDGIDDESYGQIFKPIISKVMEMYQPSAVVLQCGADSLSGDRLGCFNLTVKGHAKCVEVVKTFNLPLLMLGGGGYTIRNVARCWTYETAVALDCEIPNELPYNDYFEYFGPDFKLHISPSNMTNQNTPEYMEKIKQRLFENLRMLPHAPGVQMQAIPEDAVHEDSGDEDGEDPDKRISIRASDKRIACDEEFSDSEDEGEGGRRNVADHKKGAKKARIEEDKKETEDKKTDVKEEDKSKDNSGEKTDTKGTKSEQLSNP
IC50 (HDAC1),IC50 (HDAC2),IC50 (HDAC6),IC50 (HDAC8),Structure (SMILES),IC50 [1],IC50 [2],also measured
,,,,"O=C(NC[C@H]1CN(c2ccc(N3CCOCC3)c(F)c2)C(=O)O1)c1cc(Cl)ccc1O [compound 7, (S)-5-Chloro-N-((3-(3-fluoro-4-morpholinophenyl)-2-oxooxazolidin-5-yl)methyl)-2-hydroxybenzamide]",224 ± 80.3 µM,52.1 ± 6.26 µM,
0.979 µM,2.02 µM,,,"Nc1ccccc1NC(=O)c1ccc(CNC[C@H]2CN(c3ccc(N4CCOCC4)c(F)c3)C(=O)O2)cc1 [compound 4, (S)-N-(2-Aminophenyl)-4-((((3-(3-fluoro-4-morpholinophenyl)-2-oxooxazolidin-5-yl)methyl)amino)methyl)benzamide]",19 ± 2.53 µM,41.4 ± 5.01 µM,cytotoxicity in TMZ-resistant GBM [3]: exhibited the capacity to induce cytotoxicity
,,,,"CCN(C[C@H]1CN(c2ccc(N3CCOCC3)c(F)c2)C(=O)O1)C(=O)c1cc(C(C)C)c(O)cc1O [compound 10, (S)-N-((3-(3-Fluoro-4-morpholinophenyl)-2-oxooxazolidin-5-yl)methyl)-2,4-dihydroxy-5-isopropyl-N-ethylbenzamide]",80.6 ± 9.99 µM,48.8 ± 4.77 µM,
3.37 µM,6.43 µM,0.304 µM,1.11 µM,"O=C(CCCCCCC(=O)NC[C@H]1CN(c2ccc(N3CCOCC3)c(F)c2)C(=O)O1)NO [compound 2, (S)-N1-((3-(3-Fluoro-4-morpholinophenyl)-2-oxooxazolidin-5-yl)methyl)-N8-hydroxyoctanediamide]",,164 ± 41.5 µM,
0.735 µM,1.66 µM,0.095 µM,0.803 µM,"O=C(/C=C/c1cccc(S(=O)(=O)NC[C@H]2CN(c3ccc(N4CCOCC4)c(F)c3)C(=O)O2)c1)NO [compound 5, (R,E)-3-(3-(N-((3-(3-Fluoro-4-morpholinophenyl)-2-oxooxazolidin-5-yl)methyl)su-lfamoyl)phenyl)-N-hydroxyacrylamide]",,124 ± 17.5 µM,
,,,,"Cn1nnc2c(C(N)=O)ncn2c1=O [TMZ, temozolomide]",,,overall survival (GBM): 21.7 months
> 10 µM,> 10 µM,0.061 µM,0.938 µM,"O=C(NO)c1ccc(CNC[C@H]2CN(c3ccc(N4CCOCC4)c(F)c3)C(=O)O2)cc1 [compound 3, (S)-4-((((3-(3-Fluoro-4-morpholinophenyl)-2-oxooxazolidin-5-yl)methyl)amin-o)methyl)-N-hydroxybenzamide]",,114 ± 20.8 µM,
,,,,"CC(=O)NC[C@H]1CN(c2ccc(N3CCOCC3)c(F)c2)C(=O)O1 [linezolid, (S)-N-((3-(3-Fluoro-4-morpholinophenyl)-2-oxooxazolidin-5-yl)methyl)acetamide]",,,cytotoxicity in resistant GBM cells ([2]; 80 to 100 μM): did not induce cytotoxicity; penetration between blood and cerebrospinal fluid [4]: more than 70%; excreted in its original form in urine [5]: 30%
,,,,"CC(C)c1cc(C(=O)NC[C@H]2CN(c3ccc(N4CCOCC4)c(F)c3)C(=O)O2)c(O)cc1O [compound 8, (S)-N-((3-(3-Fluoro-4-morpholinophenyl)-2-oxooxazolidin-5-yl)methyl)-2,4-dihydroxy-5-isopropylbenzamide]",65.2 ± 11.2 µM,58 ± 6.23 µM,
,,,,"CC(C)c1cc(C(=O)N(C)C[C@H]2CN(c3ccc(N4CCOCC4)c(F)c3)C(=O)O2)c(O)cc1O [compound 9, (S)-N-((3-(3-Fluoro-4-morpholinophenyl)-2-oxooxazolidin-5-yl)methyl)-2,4-dihydroxy-5-isopropyl-N-methylbenzamide]",35.6 ± 4.64 µM,15.3 ± 2.1 µM,cytotoxicity in TMZ-resistant GBM [3]: exhibited the capacity to induce cytotoxicity
